# Reference: patent EP2802310B1, “NEW USE OF ZERUMBONE AND COMPOSITIONS COMPRISING ZERUMBONE” (Sederma, priority 2012, dated 2013)
# Where two headings read alike, the source gives them in different places.
# Legend:
# [1] = tested on: Mature human adipocytes; test: Lipolytic effect, released glycerol after 3 hours; format: cell-based; details: Adipocyte, Zerumbone 6ppm, contact time 3h, read-out: released glycerol, versus negative control
# Description: In a first test, mature human adipocytes were treated with the product to evaluate for 3 hours, then titration of the released glycerol, reflecting lipolysis, was measured in the medium.
# [2] = tested on: mature adipocytes; test: Intracellular triglyceride quantity in mature adipocytes; format: cell-based, human; details: Zerumbone 6ppm
# Description: Mature human adipocytes were treated with zerumbone to evaluate daily for 3 days. A daily titration of the released glycerol, reflecting lipolysis, was measured in the medium, before the media were changed in order to monitor the long-term effect.
# Table 5: comparison of the intracellula triglyceride quantity found in mature adipocytes
# Table 20: Comparison of the intracellular triglyceride content found in the mature adipocytes; compared effect of zerumbone, caffeine and of a mixture of zerumbone and caffeine.
# [3] = tested on: Cathepsin-S; test: Cathepsin-S in NHF under NO stress, ELISA; format: cell-based, human; details: NO stress (NOC-5)
# Description: Principle: NHFs were put into contact with the invention product for 24h then were subjected to NO stress. NO donor, NOC-5, was introduced in the culture medium. At the end of a second 24h contact with the zerumbone extract, a cathepsin-S assay was performed using ELISA. At the same time, the number of cells was quantified using the Hoechst method.
# [4] = tested on: Human preadipocytes; test: Triglyceride content after preadipocyte differentiation (glycerol released after lipase); format: cell-based; details: 10 days
# Description: Human preadipocytes were plated and induced to differentiate at confluence in the presence of a cocktail of specific inducers and evaluated products. After 10 days, the triglyceride content of the culture was estimated by measuring the released glycerol after the action of a lipase.
# [5] = tested on: adiponectin; test: Adiponectin synthesis by ELISA, 3 days contact; format: cell-based, Human
# Description: Human preadipocytes were plated and induced to differentiate at confluence in the presence of a cocktail of specific inducers. After 10 days of differentiation, the cells are purged from inducers in their basis medium and left in contact with the products for 3 days in this medium. After contact, the supernatants were collected and the adiponectin amount was measured by ELISA.
# [6] = tested on: Fibromodulin; test: Fibromodulin synthesis in NHF, ELISA; format: cell-based, human; details: two days
# Description: Principle: NHFs were put into contact with the product of the invention for two days (fibromodulin) or three days (dermatopontin). The supernatants were then assayed using ELISA tests. At the same time, the number of cells was quantified using the Hoechst method.
# [7] = tested on: IL6; test: IL6 synthesis by ELISA in adipocyte supernatants; format: cell-based; details: Homo sapiens
# Description: Human preadipocytes were seeded and induced to differentiate in the presence of a cocktail of specific inducers and the evaluated products. At the end of differentiation (at 7 and 10 days), the IL6 content synthetized by the adipocytes is measured in the culture supernatants by ELISA method. Furthermore, after 10 days of differentiation, mature adipocytes are placed in contact of the products during 72h and the IL6 content is also measured in the cellular supernatants. In parallel, survival estimation was realized on these two assays (Hoechst tests).
# [8] = tested on: elastin; test: Elastin synthesis in fibroblasts under NO stress, ELISA; format: cell-based; details: Homo sapiens, Fibroblast, NHF, compared to the control case following the same NO, read-out: protection of elastin synthesis
# [9] = tested on: Human preadipocytes; test: Anti-differentiating effect, intracellular G3PDH activity, human preadipocytes; format: cell-based
# Description: Human preadipocytes were plated and induced to differentiate at confluence in the presence of a cocktail of specific inducers and the evaluated products. After 10 days, the layers were crushed and intracellular G3PDH activity was assayed. A cell quantification test (Hoechst) on the same extracts complements the assay.
# [10] = tested on: elastin; test: Elastin fibres in skin explants under NO stress (Verhoeff stain); details: 18 ppm
# Description: Principle: Explants (person, abdominal skin) received a topical cream containing the product of the invention (cream according to above example 1 at 18ppm of zerumbone) or a placebo cream (same cream without zerumbone) for two days. At the same time, the culture medium received 18ppm of zerumbone in a liquid form (or its excipient) to potentiate the effects. A NO stress was later applied for 24 hours using an NO donor (NOC-5) integrated in the culture medium. Finally, the product was again applied on the explants and in the culture medium for two days.
# Counting was done using photos (50 photos/case) by filtering the colours.
# [11] = tested on: elastase; test: Dermal destruction by proteases in skin explants, elastase; details: 18ppm of zerumbone co-injected with the protease; five days at 37°C; confocal microscope
# Description: Principle: Once prepared, skin explants (person, abdominal skin) received an injection of elastase or collagenase that could proteolyse 30 µmol/min of elastin or collagen. In another case, the invention product (titrated at 18ppm of zerumbone) was co-injected with the protease to assess its ability to inhibit the proteolysis of constituents of the dermis, and thus of protection of the dermis. After five days of incubation at 37°C, the result was observed through a confocal microscope and compared to what was obtained in the case without protease at the same depth (60 µm).
# [12] = tested on: Murine 3T3-L1 fibroblasts; test: Anti-differentiating effect on adipocytes, intracellular G3PDH activity, 3T3-L1 line; format: cell-based
# Description: Murine 3T3-L1 fibroblasts were seeded and induced to differentiate into adipocytes for 6 days with specific inducers in the presence of the evaluated products. When mature adipocytes were obtained, layers were crushed and intracellular G3PDH ([…]) activity is measured. A cell quantification test (Hoechst) on the same extracts complements the assay.
# [13] = 72 h, adipocytes after differenciation (3days), read-out: IL6 % Var / control
structure (smiles),measurement,setting,value
"C/C1=C\CC(C)(C)/C=C/C(=O)/C(C)=C/CC1 [Zerumbone, 2E, 6E, 9E-Humulatrien-8-one]",activation at 6 ppm,[1],0%
same,inhibition at 6 ppm,"[2]; Homo sapiens, Adipocyte, 72 h, read-out: Triglycerides Variation (%)",37%
same,Triglycerides,[2],4947 ± 236 µM/10^6cell.
same,Triglycerides Variation (%),[2]; 4320 min,-37%; p<0.01
same,Cathepsin-S,[3]; 5 ppm,290 ± 40 pg/106cell.
same,inhibition at 5 ppm,"[3]; Homo sapiens, Fibroblast, read-out: Cathepsin-S % Variation",34%
same,[TG],[4]; 3ppm,3562 +/- 233 µ U/ 10^6 cell
same,[TG],[4]; 5ppm,2966 +/- 128 µ U/ 10^6 cell
same,inhibition at 3 ppm,"[4]; Homo sapiens, 240 h, 3ppm, read-out: [TG] % Var / control",15%
same,inhibition at 5 ppm,"[4]; Homo sapiens, 240 h, 5ppm, read-out: [TG] % Var / control",29%
same,[Adiponectin],[5]; 2ppm,221.4 +/- 24.5 ng/10^E6 cell
same,[Adiponectin],[5]; 6ppm,19.0 +/- 0.6 ng/10^E6 cell
same,activation at 2 ppm,"[5]; Homo sapiens, 72 h, 2ppm, read-out: [Adiponectin] % Var / control",45%
same,activation at 6 ppm,"[5]; Homo sapiens, 72 h, 6ppm, read-out: [Adiponectin] % Var / control",95%
same,Fibromodulin,[6]; 5 ppm,51.4 ± 13.4 ng/106cell.
same,activation at 5 ppm,"[6]; Homo sapiens, 48 h, read-out: Fibromodulin % Variation",268%
same,inhibition at 3 ppm,[7]; [13],33%
same,inhibition at 5 ppm,[7]; [13],31%
same,inhibition at 3 ppm,"[7]; 240 h, adipocytes in the course of differenciation (10days), read-out: IL6 % Var / control",49%
same,inhibition at 5 ppm,"[7]; 240 h, adipocytes in the course of differenciation (10days), p=0.09, read-out: IL6 % Var / control",50%
same,activation at 5 ppm,[8],179%
same,[G3PDH],"[9]; 0.5ppm, 10 days",144 +/- 15 mU/ 10^6 cell
same,[G3PDH],"[9]; 1ppm, 10 days",106 +/- 14 mU/ 10^6 cell
same,[G3PDH],"[9]; 3ppm, 10 days",30 +/- 2 mU/ 10^6 cell
same,G3PDH activity and human preadipocytes differentiation,[9]; 5 ppm of extract,complete inhibition
same,[G3PDH],"[9]; 5ppm, 10 days",15 +/- 3 mU/ 10^6 cell
same,inhibition at 0.5 ppm,"[9]; Homo sapiens, 240 h, 0.5ppm, 10 days, read-out: [G3PDH] % Var / control",18%
same,inhibition at 1 ppm,"[9]; Homo sapiens, 240 h, 1ppm, 10 days, read-out: [G3PDH] % Var / control",39%
same,inhibition at 3 ppm,"[9]; Homo sapiens, 240 h, 3ppm, 10 days, read-out: [G3PDH] % Var / control",83%
same,inhibition at 5 ppm,"[9]; Homo sapiens, 240 h, 5ppm, 10 days, read-out: [G3PDH] % Var / control",91%
same,Elastin,"[10]; cream and culture medium, NO stress (NOC-5) 24 hours",2.41 ± 1.40 UCA
same,Elastin % Variation,[10]; versus Control NO (Reference 2),+104%; p<0.01
same,integrity of the dermis under elastase stress,[11],retains its integrity
same,[G3PDH],"[12]; 1ppm, differentiation for 6 days",304.2 +/- 9.9 mU/ 10^6 cell
same,cytotoxicity,"[12]; 3T3-L1, tested doses",without apparent cytotoxicity
same,[G3PDH],"[12]; 3ppm, differentiation for 6 days",79.3 +/- 43.6 mU/ 10^6 cell
same,differentiation of 3T3-L1,[12]; 5ppm,total inhibition
same,[G3PDH],"[12]; 5ppm, differentiation for 6 days",3.4+/-10.3 mU/ 10^6 cell
same,inhibition at 1 ppm,"[12]; Mus musculus, 3T3-L1, 144 h, 1ppm, differentiation for 6 days, read-out: [G3PDH] % Var / control",53%
same,inhibition at 3 ppm,"[12]; Mus musculus, 3T3-L1, 144 h, 3ppm, differentiation for 6 days, read-out: [G3PDH] % Var / control",88%
same,inhibition at 5 ppm,"[12]; Mus musculus, 3T3-L1, 144 h, 5ppm, differentiation for 6 days, read-out: [G3PDH] % Var / control",99%
